# Paper PMC12810539, “EGFR-targeted gadolinium contrast agents for enhanced molecular magnetic resonance imaging of tumors” (The Journal of Biological Chemistry, 2025)
# Legend:
# [1] = test system: MDA-MB-231, A549, SGC-7901, SW480 and U138 MG cells; test: In vitro MR imaging of labelled tumor cells, with and without C225; format: cell-based, human; settings: for MRI signal of cells pretreated with versus without C225: C225 preincubation 12 h, then 50 μM Gd for 24 h, all tested cell lines; for MR enhancement effect in MDA-MB-231, A549, SGC-7901 and SW480 tumor cells / MR enhancement effect in U138MG cell line: 37 °C, 11.7 T MR microimaging of cell pellets
# Experimental: For the in vitro MRI assay, MDA-MB-231, A549, SGC-7901, SW480, and U138 MG cells were seeded into 100 mm × 20 mm cell culture dishes at a density of approximately 1 × 10^6 cells per dish and incubated with EBP-Gd-DO3A, EBP-(Gd-DO3A)3 or Gadovist at a Gd concentration of 50 μM for 24 h at 37 °C. After the completion of the labelling, the cells were washed with PBS 3 times and collected into 1.5 mm-i.d. capillary tubes that were centrifuged at 1400 rpm for 5 min to enable cells to be well packed in the bottom of the capillary for the MRI. The in vitro MRI experiments were performed on an 11.7 T Bruker NMR spectrometer that functioned as an MR microimaging system with a maximum gradient strength of 1.0 T/m. A linear 15-mm-i.d birdcage coil was used for radiofrequency transmission and signal reception. The parameters used for acquiring images were TR = 500 ms, TE = 5.2 ms, FOV = 12 × 12 mm^2, matrix = 96 × 96, flip angle = 90°, slice thickness/gap = 0.8/0.2 mm and number of averages = 4.
# The C225-preincubated cells described above were imaged with MRI to observe the contrast enhancement effects. The method used for the MR imaging of cell pellets was the same as that for the in vitro MR imaging of the conjugates described above.
# [2] = target: T1, EGFR (Homo sapiens, UniProt P00533); test: EGFR inhibition assay (competitive cell binding with anti-EGFR antibody C225); format: cell-based; settings: all tested cell lines, 5 μg/ml C225 preincubation 12 h, then 50 μM Gd for 1 h, ICP-MS
# T1 construct: endogenous in cells; host or cells: MDA-MB-231, A549, SGC-7901, SW480, U138 MG (human tumour cell lines, CCTCC)
# Experimental: To further verify the receptor-binding affinity and specificity of EBP-Gd-DO3A and EBP-(Gd-DO3A)3, a competitive cell-binding assay was carried out. MDA-MB-231, A549, SGC-7901, SW480, and U138 MG cells were preincubated with fresh serum-free medium containing 5 μg/ml anti-EGFR monoclonal antibody C225 (ImClone Systems, Inc., New York, NY) for 12 h at 37 °C. The culture supernatant was removed from the resulting solution, followed by the addition of EBP-Gd-DO3A, EBP-(Gd-DO3A)3, or Gadovist at a Gd concentration of 50 μM for the indicated time points. The cellular Gd content was measured by ICP-MS as described above, and the C225-induced reduction in the cellular Gd accumulation was used to calculate an inhibition index of cellular Gd uptake ([34]).
# [3] = Longitudinal and transverse relaxivity at 3T MRI; format: physicochemical; settings: in water, 37 °C, slope of 1/T1 versus Gd concentration (0-0.5 mM)
# Experimental: The EBP-Gd-DO3A and EBP-(Gd-DO3A)3 conjugates were confirmed by matrix-assisted laser desorption/ionization time-of-flight (MALDI-TOF) mass spectrometry (Applied Biosystems) in a linear mode with 2,5-dihydroxybenzoic acid (2,5-DHB) as the matrix. The Gd content in the conjugates was determined by ICP-MS (Thermo Fisher Scientific) ([31]). […] Serial dilutions of EBP-Gd-DO3A, EBP-(Gd-DO3A)3, and Gadovist were prepared in water at Gd concentrations of 0.5, 0.25, 0.125, 0.0625, 0.03125, and 0 mM. The relaxivity measurements were performed on a 3T MRI scanner (Trio, Siemens). T1 was measured using an inversion recovery method with a variable inversion time ranging from 50 to 1750 ms. T2 was measured using a Carr-Purcell-Meiboom-Gill sequence with 500 echoes collected. The relaxivities (r1 and r2) of the agents were calculated from the slopes of the plots of 1/T1 and 1/T2 versus the Gd concentrations.
# [4] = test system: SGC-7901 cells; test: Cellular Gd content after incubation (cell binding assay, ICP-MS); format: cell-based, human; settings: SGC-7901, 50 μM Gd, 37 °C, mean ± SD (n = 6)
# Experimental: (§1) The binding of EBP-Gd-DO3A and EBP-(Gd-DO3A)3 to the receptor on MDA-MB-231, A549, SGC-7901, SW480, and U138 MG cells was compared with that of Gadovist. The cells were seeded into 100 mm × 20 mm cell culture dishes at a density of approximately 1 × 10^6 cells per dish and incubated with EBP-Gd-DO3A, EBP-(Gd-DO3A)3 or Gadovist at a Gd concentration of 50 μM for 1 h or 12 h at 37 °C. After incubation, the cells were washed once with PBS followed by mild acidic buffer (50 mM glycine, 150 mM NaCl (pH 3.0)) at 4 °C for 5 min. Then, the cells were washed twice with PBS, and the cellular Gd content was measured by ICP-MS.
# (§2) Cells were seeded into 100 mm×20 mm cell culture dishes at a density of approximately 1×10^6 cells per dish and incubated with EBP-Gd-DO3A, EBP-(Gd-DO3A)3 or Gadovist® at Gd concentrations of 50 μM at 37°C for the indicated time points. The Gd content in the cell lysates was quantified by ICP-MS. The values are presented as the mean ± SD (n = 6).
# [5] = test system: SW480 cells; test: as above; format: cell-based, human; settings: SW480, 50 μM Gd, 37 °C, mean ± SD (n = 6)
# Experimental: as §1, §2
# [6] = test system: U138MG cells; test: as above; format: cell-based, human; settings: U138MG (non-EGFR-overexpressing), 50 μM Gd, 37 °C, mean ± SD (n = 6)
# Experimental: as §1, §2
# [7] = test system: A549 cells; test: as above; format: cell-based, human; settings: A549, 50 μM Gd, 37 °C, mean ± SD (n = 6)
# Experimental: as §1, §2
# [8] = test system: MDA-MB-231 cells; test: as above; format: cell-based, human; settings: MDA-MB-231 (EGFR-overexpressing), 50 μM Gd, 37 °C, mean ± SD (n = 6)
# Experimental: as §1, §2
molecule,measurement,setting,value
"O=C([O-])CN1CCN(CC(=O)[O-])CCN([C@H](CO)[C@H](O)CO)CCN(CC(=O)[O-])CC1.[Gd+3] (racemic) [Gadovist, reference compound]",T1 signal intensity in cells with different levels of EGFR expression,"[1]; 50 μM Gd, 24 h, ROI analysis, p > 0.05",not significantly different
same,MRI signal of cells pretreated with versus without C225,[1],no significant difference
same,cellular Gd accumulation with versus without C225 pretreatment,[2],No significant difference
same,longitudinal relaxivity (r1),[3],3.14 mM⁻¹ s⁻¹
same,Concentration of cellular Gd,[4]; 1 h,0.15 ± 0.05 μM/10^6 cells
same,Concentration of cellular Gd,[4]; 12 h,0.16 ± 0.03 μM/10^6 cells
same,Concentration of cellular Gd,[5]; 1 h,0.19 ± 0.07 μM/10^6 cells
same,Concentration of cellular Gd,[5]; 12 h,0.20 ± 0.07 μM/10^6 cells
same,Concentration of cellular Gd,[6]; 1 h,0.20 ± 0.04 μM/10^6 cells
same,Concentration of cellular Gd,[6]; 12 h,0.24 ± 0.05 μM/10^6 cells
same,Concentration of cellular Gd,[7]; 1 h,0.25± 0.05 μM/10^6 cells
same,Concentration of cellular Gd,[7]; 12 h,0.18 ± 0.04 μM/10^6 cells
same,Concentration of cellular Gd,[8]; 1 h,0.18 ± 0.06 μM/10^6 cells
same,Concentration of cellular Gd,[8]; 12 h,0.13 ± 0.02 μM/10^6 cells
CMYIEALDKYAC [EBP-(Gd-DO3A)3],"MR enhancement effect in MDA-MB-231, A549, SGC-7901 and SW480 tumor cells","[1]; 50 μM Gd, 24 h",strong enhancement effects
same,MR enhancement effect in U138MG cell line,"[1]; 50 μM Gd, 24 h",much weaker enhancement effect
same,MRI signal of cells pretreated with versus without C225,[1],reduced
same,cellular Gd accumulation with versus without C225 pretreatment,[2],reduced
same,longitudinal relaxivity (r1),[3],7.24 mM⁻¹ s⁻¹
same,Concentration of cellular Gd,[4]; 1 h,1.01± 0.08 μM/10^6 cells
same,Concentration of cellular Gd,[4]; 12 h,2.31 ± 0.14 μM/10^6 cells
same,Concentration of cellular Gd,[5]; 1 h,1.05 ± 0.09 μM/10^6 cells
same,Concentration of cellular Gd,[5]; 12 h,2.65 ± 0.11 μM/10^6 cells
same,Concentration of cellular Gd,[6]; 1 h,0.15 ± 0.04 μM/10^6 cells
same,Concentration of cellular Gd,[6]; 12 h,0.74 ± 0.17 μM/10^6 cells
same,Concentration of cellular Gd,[7]; 1 h,1.04 ± 0.06 μM/10^6 cells
same,Concentration of cellular Gd,[7]; 12 h,2.66 ± 0.15 μM/10^6 cells
same,Concentration of cellular Gd,[8]; 1 h,1.17 ± 0.12 μM/10^6 cells
same,Concentration of cellular Gd,[8]; 12 h,2.79 ± 0.18 μM/10^6 cells
CMYIEALDKYAC [EBP-Gd-DO3A],"MR enhancement effect in MDA-MB-231, A549, SGC-7901 and SW480 tumor cells","[1]; 50 μM Gd, 24 h",strong enhancement effects
same,MR enhancement effect in U138MG cell line,"[1]; 50 μM Gd, 24 h",much weaker enhancement effect
same,MRI signal of cells pretreated with versus without C225,[1],reduced
same,cellular Gd accumulation with versus without C225 pretreatment,[2],reduced
same,longitudinal relaxivity (r1),[3],5.08 mM⁻¹ s⁻¹
same,Concentration of cellular Gd,[4]; 1 h,0.35 ± 0.04 μM/10^6 cells
same,Concentration of cellular Gd,[4]; 12 h,1.12 ± 0.16 μM/10^6 cells
same,Concentration of cellular Gd,[5]; 1 h,0.31 ± 0.06 μM/10^6 cells
same,Concentration of cellular Gd,[5]; 12 h,1.01 ± 0.13 μM/10^6 cells
same,Concentration of cellular Gd,[6]; 1 h,0.09 ± 0.01 μM/10^6 cells
same,Concentration of cellular Gd,[6]; 12 h,0.25 ± 0.07 μM/10^6 cells
same,Concentration of cellular Gd,[7]; 1 h,0.37 ± 0.07 μM/10^6 cells
same,Concentration of cellular Gd,[7]; 12 h,1.24 ± 0.19 μM/10^6 cells
same,Concentration of cellular Gd,[8]; 1 h,0.43 ± 0.05 μM/10^6 cells
same,Concentration of cellular Gd,[8]; 12 h,1.16 ± 0.10 μM/10^6 cells
